Results: patent US11311483B2, “Curcumin solubilisate” (AQUANOVA AG, priority 2012, dated 2022)

Test: human study: plasma curcumin after a single oral dose of 500 mg curcumin
Format: in vivo
Conditions: 24 healthy persons, read-out: curcumin concentration in blood plasma
Protocol: The solubilisate according to the invention is further characterized in that the total curcuminoid concentration in human blood plasma, measured one hour after oral administration of 500 mg curcumin in the form of the solubilisate, is approximately 500 ng curcuminoid per ml plasma±100 ng curcuminoid per ml plasma. In contrast, when native curcumin is taken orally in powdered form, only approximately 1.3 ng curcuminoid per ml plasma is achieved after one hour.
The human study on which these values are based was conducted on 24 healthy persons between 19 and 29 years of age, who received a single oral dose of 500 mg native curcumin or curcumin in the form of the solubilisate according to the invention. Blood samples were withdrawn at various times over a period of 24 hours after the curcumin was taken. To minimize the possible concurrent influence of digested food, the test subjects were served standardized meals. One hour after taking the curcumin in native form, less than 1 nmol/l plasma was measured; 8 hours after administration, 2.4 nmol/l was measured; and 24 hours after administration, 2.4 nmol/l was measured. In contrast, for curcumin from the solubilisate according to the invention, one hour after administration, 1,964 nmol/l was measured in the blood plasma; 8 hours after administration, 307.1 nmol/l was measured; and 24 hours after administration, 67.7 nmol/l was measured. A solubilisate containing […] curcumin was used (the commercial product “6% NovaSOL Curcumin” of the applicant).

COc1cc(/C=C/C(=O)CC(=O)/C=C/c2ccc(O)c(OC)c2)ccc1O [native curcumin, Curcumin]
concentration at 8 h (8 hours after single oral dose of 500 mg): 2.4 nM
concentration at 24 h (24 hours after single oral dose of 500 mg): 2.4 nM
concentration at 1 h (one hour after single oral dose of 500 mg): < 1 nM
